Assay results as given in patent US12187758B2 (ROME Therapeutics, Inc., priority 2022, dated 2025).

Legend:
Type in all cases: cell-based
[1] = Mitochondria toxicity assay with PC3 cells, in-cell ELISA COX-1; conditions: 5 days treatment
Description: (§1) Exemplary compounds were tested for inhibition of expression of mitochondria DNA encoded proteins COX-1 […]. SDH-A (succinate dehydrogenase-A) is a control mitochondria protein encoded by nuclear DNA. Reduction in COX-1 expression indicates off target inhibition of mitochondria DNA synthesis which leads to mitochondrial toxicity. Assay procedures and results are described below.
(§2) PC3 cells were purchased from ATCC and cultured in F-12 Kaighn's modified medium (Hyclone), 10% heat-inactivated fetal bovine serum (Invitrogen), 1% Penicillin-Streptomycin (Invitrogen). PC3 cells were treated with a dose titration of a test compound on 96 well plates for 5 days at 37° C., 5% CO2 in a humidified incubator. The treatment plates are duplicated, one for in-cell ELISA for mitochondria proteins and one for cytotoxicity.
(§3) In-cell ELISA was performed to measure mitochondrial proteins using MitoBiogenesis In-Cell ELISA kit (Abcam) per manufacturer's instruction. The medium was aspirated from the compound treated cells, 100 μl per well of 4% paraformaldehyde (Solarbio) was added and cells were incubated at room temperature for 20 minutes. The cells were washed three times with PBS. 100 μl of 0.5% acetic acid was added per cell, and the cells were incubate at room temperature for 5 minutes. Cells were washed once with PBS. 100 μl per well of Permeabilization Buffer was added, and the cells incubate at room temperature for 30 minutes. The permeabilization buffer was removed and 200 μl per well 2× Blocking Buffer was added and the cells were incubated at room temperature for 2 hours. After removing the Blocking Buffer 100 μl per well of primary antibody to SDH-A or COX-1 was added, and the cells were incubated at 4° C. overnight. The primary antibody solution was removed and cells were washed 3 times with the Wash Buffer. 100 μl per well of AP- and HRP-labelled secondary antibodies was added, and the cells were incubated at room temperature for 1 hour. The cells were then washed 4 times with the Wash Buffer. For SDH-A detection, 100 μl per well AP Development Solution was added, and the cells were incubated at room temperature for 10 minutes. Cells were then read on CLARTO star^plus microplate reader (BMG Labtech) for kinetic readings at 405 nm for 5 minutes. […] The cells were then read on CLARTO star^plus microplate reader (BMG Labtech) for kinetic readings at 600 nm for 15 minutes.
(§4) In the table “A” represents values<1.0 μM; “B” represents values from >1.0 μM to ≤10.0 μM; “C” represents values from >10.0 μM to ≤50.0 μM; “D” represents values from >50.0 μM to ≤100.0 μM; and “E” represents values>100.0 μM.

[2] = tested on: SDH-A (succinate dehydrogenase-A); assay: Mitochondria toxicity assay with PC3 cells, in-cell ELISA SDH-A; conditions: 5 days treatment
Description: as §1, §2, §3, §4

[3] = tested on: PC3 cells; assay: Mitochondria toxicity assay with PC3 cells, cytotoxicity (Cell Titer Glo); conditions: Homo sapiens, PC-3, 120 h, 5 days treatment
Description: as §2
For the cytotoxicity assay, the medium from the cell viability plate was removed, 50 μL per well of Cell Titer Glo (Promega, G9683) was added. Then the cells incubated for 30 minutes at room temperature. Luminescence was read by Envision (PerkinElmer 2105).
as §4

Row | Structure (SMILES) | IC50 [1] [µM] | IC50 [2] [µM] | IC50 [3] [µM]
1 | Nc1nc(F)nc2c1ncn2[C@H]1C[C@H](O)C(CO)(CO)O1 [Compound 10, ((3S,5R)-5-(6-amino-2-fluoro-9H-purin-9-yl)-3-hydroxytetrahydrofuran-2,2-diyl) dimethanol] | 1 to 10 | 1 to 10 | 10 to 50
2 | Cc1cn([C@H]2C[C@H](O)[C@](CO)(N=[N+]=[N-])O2)c(=O)[nH]c1=O [Compound 30, 1-((2R,4S,5R)-5-azido-4-hydroxy-5-(hydroxymethyl)tetrahydrofuran-2-yl)-5-methylpyrimidine-2,4(1H,3H)-dione] | > 100 | > 100 | > 100
3 | CO[C@]1(CO)O[C@@H](n2ccc(N)nc2=O)C[C@@H]1O [Compound 48, 4-amino-1-((2R,4S,5R)-4-hydroxy-5-(hydroxymethyl)-5-methoxytetrahydrofuran-2-yl)pyrimidin-2(1H)-one] | 1 to 10 | 1 to 10 | 10 to 50
4 | [N-]=[N+]=N[C@]1(CO)O[C@@H](n2ccc(N)nc2=O)C[C@@H]1O [Compound 49, 4-amino-1-((2R,4S,5R)-5-azido-4-hydroxy-5-(hydroxymethyl)tetrahydro-furan-2-yl)pyrimidin-2(1H)-one] | < 1 | < 1 | < 1
5 | CO[C@H]1C[C@H](n2ccc(N)nc2=O)O[C@@]1(CO)CCl [Compound 54, 4-amino-1-[(2R,4S,5R)-5-(chloromethyl)-5-(hydroxymethyl)-4-methoxyoxolan-2-yl]-3,4-dihydropyrimidin-2-one] | > 100 | > 100 | > 100
6 | Nc1ccn([C@H]2C[C@@H](O)[C@](CO)(CCl)O2)c(=O)n1 [Compound 59, 4-amino-1-[(2R,4R,5R)-5-(chloromethyl)-4-hydroxy-5-(hydroxymethyl)oxolan-2-yl] pyrimidin-2-one] | > 100 | > 100 | > 100
7 | Nc1nc(=O)n([C@H]2C[C@H](O)[C@](CO)(CCl)O2)cc1C(F)(F)F [Compound 71, 4-amino-1-((2R,4S,5R)-5-(chloromethyl)-4-hydroxy-5-(hydroxymethyl)tetrahydrofuran-2-yl)-5-(trifluoromethyl)pyrimidin-2(1H)-one] | > 100 | > 100 | > 100
8 | Nc1ncnn2c([C@H]3C[C@H](O)[C@](CO)(CF)O3)ccc12 [Compound 79, (2R,3S,5R)-5-(4-aminopyrrolo[2,1-f] [1,2,4]triazin-7-yl)-2-(fluoromethyl)-2-(hydroxymethyl) tetrahydrofuran-3-ol] | > 100 | > 100 | > 100
9 | Nc1nc2c(ncn2[C@@H]2O[C@@](CO)(CF)[C@@H](O)[C@@H]2F)c(=O)[nH]1 [Compound 83, 2-amino-9-((2R,3S,4R,5R)-3-fluoro-5-(fluoromethyl)-4-hydroxy-5-(hydroxymethyl)tetrahydrofuran-2-yl)-1,9-dihydro-6H-purin-6-one] | 10 to 50 | 10 to 50 | 10 to 50
10 | Nc1nc(F)nc2c1ncn2[C@@H]1O[C@@](CO)(CF)[C@@H](O)[C@@H]1F [Compound 84] | 10 to 50 | 50 to 100 | 10 to 50
11 | Nc1nc2c(ncn2[C@@H]2O[C@@](CO)(CCl)[C@@H](O)[C@@H]2O)c(=O)[nH]1 [Compound 94, 2-amino-9-[(2R,3S,4S,5R)-5-(chloromethyl)-3,4-dihydroxy-5-(hydroxymethyl)oxolan-2-yl]-1H-purin-6-one] | > 100 | > 100 | > 100
12 | Nc1nc(=O)n([C@@H]2O[C@@](CO)(C(F)(F)F)[C@@H](O)[C@@H]2O)cc1F [Compound 95, 4-amino-1-((2R,3S,4S,5R)-3,4-dihydroxy-5-(hydroxymethyl)-5-(trifluoromethyl)tetrahydrofuran-2-yl)-5-fluoropyrimidin-2(1H)-one] | > 100 | > 100 | > 100
13 | Nc1nc(=O)n([C@@H]2O[C@@](CO)(CI)[C@@H](O)[C@@H]2F)cc1F [Compound 129, 4-amino-5-fluoro-1-((2R,3S,4R,5R)-3-fluoro-4-hydroxy-5-(hydroxymethyl)-5-(iodomethyl)tetrahydrofuran-2-yl)pyrimidin-2(1H)-one] | > 100 | > 100 | > 100
14 | Nc1nc(=O)n([C@@H]2O[C@](/C=C\Cl)(CO)[C@@H](O)[C@@H]2F)cc1F [Compound 132, 4-amino-1-[(2R,3S,4R,5R)-5-(2-chloroethenyl)-3-fluoro-4-hydroxy-5(Z)-(hydroxymethyl)oxolan-2-yl]-5-fluoropyrimidin-2-one] | > 100 | > 100 | > 100
15 | CSC[C@]1(CO)O[C@@H](n2cc(F)c(N)nc2=O)[C@@H](F)[C@@H]1O [Compound 135, 4-amino-5-fluoro-1-[(2R,3S,4R,5R)-3-fluoro-4-hydroxy-5-(hydroxymethyl)-5-[(methylsulfanyl)methyl]oxolan-2-yl] pyrimidin-2-one] | 1 to 10 | 10 to 50 | 10 to 50
16 | NC(=O)[C@]1(CO)O[C@@H](n2cc(F)c(N)nc2=O)[C@@H](F)[C@@H]1O [Compound 138, (2R,3R,4S,5R)-5-(4-amino-5-fluoro-2-oxopyrimidin-1-yl)-4-fluoro-3-hydroxy-2-(hydroxymethyl) oxolane-2-carboxamide] | > 100 | > 100 | > 100
17 | NC[C@]1(CO)O[C@@H](n2cc(F)c(N)nc2=O)[C@@H](F)[C@@H]1O [Compound 139, 4-amino-1-[(2R,3S,4R,5R)-5-(aminomethyl)-3-fluoro-4-hydroxy-5-(hydroxymethyl)oxolan-2-yl]-5-fluoropyrimidin-2-one] | > 100 | > 100 | > 100
18 | CC(O)[C@]1(CO)O[C@@H](n2cc(F)c(=O)[nH]c2=O)[C@@H](F)[C@@H]1O (stereo partly drawn) [Compound 162, 5-fluoro-1-[(2R,3S,4R,5S)-3-fluoro-4-hydroxy-5-(1-hydroxyethyl)-5-(hydroxymethyl)oxolan-2-yl]-3H-pyrimidine-2,4-dione] | > 100 | > 100 | > 100
19 | O=c1[nH]c(=O)n([C@@H]2O[C@@](CO)(CCl)[C@@H](O)[C@@H]2F)cc1F [Compound 163, 1-[(2R,3S,4R,5R)-5-(chloromethyl)-3-fluoro-4-hydroxy-5-(hydroxymethyl)oxolan-2-yl]-5-fluoro-3H-pyrimidine-2,4-dione] | > 100 | > 100 | > 100
20 | N#C[C@]1(CO)O[C@@H](n2cc(F)c(N)nc2=O)[C@@H](F)[C@@H]1O [Compound 166] | > 100 | > 100 | > 100
